From patent EP0288048A2, “Benzo- and thieno-3,4-dihydropyridine derivates, processes for their preparation, and medicaments containing them” (BOEHRINGER INGELHEIM KG, priority 1987, dated 1988) come the findings set out here.

Structures are written as SMILES.

The first assay concerns isolierten Rattenherzen. The experiment in a line: Cardioprotective effect on isolated rat hearts under ischaemia followed by reperfusion (duration of arrhythmia phase). Also noted: species or system Ratten. As to conditions: konz. 3,3 µg/ml; isolated rat heart, one hour ischaemia (flow 0.15 ml/min), then reperfusion. The source says:
Wird ein längere Zeit unter ischämischen Bedingungen gehaltenes, isoliertes Herz wieder normal perfundiert, so tritt keine sofortige Normalisierung der Herzfunktion ein. Es findet sich vielmehr eine vorübergehende Periode, die durch Kontraktur und Arrhytmien gekennzeichnet ist. Diese Arrhythmiephase ist durch Veränderungen von Funktion und Struktur der Myocardzelle mit intrazellulärer Calciumüberladung bedingt (Hess u. Manson, J. Mol. Cell. Cardiol. 16, 969, 1984). Cardioprotektiv wirksame Verbindungen wie Verapamil und Diltiazem verringern die Calciumüberladung und verbessern das Kontraktionsverhalten bei Reperfusion (Watts et al. Am. J. Physiol. 238, H 909, 1980; Meno et al. Am. J. Physiol. 247, H 380, 1984). Die cardioprotektive Wirkung wurde an isolierten Rattenherzen unter Ischämie und anschließender Reperfusion untersucht. Unter Kontrollbedingungen findet sich nach einstündiger Ischämie (Fluß 0.15 ml,min) eine Periode unregelmäßiger Herztätigkeit von 10-15 Minuten. Infusion von cardioprotektiven Verbindungen bewirkt eine signifikante Verkürzung dieser Periode.
For the compound `COc1cc2c(cc1OC)C(C(CCc1ccccc1)C(=O)NCCc1ccncc1)=NCC2` (stereo not drawn) [L], the “Verkürzung der Arrhythmie-phase von 11-13 min auf” value is listed as 5,0 min.
Still for that read-out and setting: then `COc1cc2c(cc1OC)C1(CCCC1)CNC2=CC1=NCC2(CCCC2)c2cc(OC)c(OC)cc21` [Verbindung A], with 4,0 min.

Staying with this assay, now noted: konz. 6,6 µg/ml; isolated rat heart, one hour ischaemia (flow 0.15 ml/min), then reperfusion.
For `CCCCC(C(=O)NC(C)CCCC(C)C)C1=NCCc2cc(OC)c(OC)cc21` (stereo not drawn) [K], the “Verkürzung der Arrhythmie-phase von 11-13 min auf” value is recorded as 3,1 min.

Still in this assay, the particulars now being: konz. 13,3 µg/ml; isolated rat heart, one hour ischaemia (flow 0.15 ml/min), then reperfusion.
Take `COc1cc2c(cc1OC)C(CC(=O)N1CCOCC1)=NCC2` [Verbindung I]: the “Verkürzung der Arrhythmie-phase von 11-13 min auf” value is recorded as 3,5 min.

For the next assay, the system named is myocardiale Radiocalciumaufnahme. The experiment in a line: Cardioprotective effect in conscious rats: inhibition of isoprenaline-induced myocardial radiocalcium uptake (method of Arndts). It is filed as in vivo, Ratten. Also noted: unit not given here. The settings on record: oral administration (perorale Wirkstoffabgabe), dose inhibiting by 50 % the myocardial radiocalcium uptake caused by 30 mg/kg s.c. Isoprenalin. From the text:
Insbesondere weisen diese Substanzen eine deutliche cardioprotektive Wirkung auf, die wie folgt bestimmt wurde: • Bekanntlich ist der myocardiale Ca(2+)-Gehalt ein Maß für die hypoxische bzw. durch toxische Catecholamindosen hervorgerufene Herzschädigung (Higgins et al., Mol. Cell. Cardiol. 10, 427-438, 1984; Nakanishi et al., Am. J. Physiol. 242, 437-449, 1982; Fleckenstein, A. Vorträge der Erlanger Physiol. Tagung 1970, Edit. Keidel, Springer Verlag Berlin, Heidelberg, New York, 1971). Umgekehrt ist die Inhibition der hypoxischen oder Isoprenalin-bedingten myocardialen Calciumaufnahme ein Maß für die cardioprotektive Effektivität von Calciumantagonisten (Fleckenstein, s.o.), von Calmodulininhibitoren (Higgins) und anderen Pharmaka, z.B. Betaadrenolytika (Arndts, Arzneimittelforschung 25, 1279-1284, 1975). Die cardioprotektive Wirkung wurde an wachen Ratten nach subcutaner oder peroraler Wirkstoffabgabe anhand der von Arndts (s.o.) beschriebenen Methode festgestellt und die Wirkungsstärke der Testsubstanzen als Hso-Wert angegeben. Dieser Wert entspricht der Dosis, die die durch eine Gabe von 30 mg/kg s.c. Isoprenalin bedingte myocardiale Radiocalciumaufnahme zu 50 % hemmt.
Take `COc1cc2c(cc1OC)C(CC(=O)NN(C)C)=NCC2` [B]: the H50-Wert is given as 2.26.
In the case of `CCCCC(C(=O)NCC(C)C)C1=NCCc2cc(OC)c(OC)cc21` (stereo not drawn) [C, α-Isobutylaminocarbonyl-1-pentyl-6,7-dimethoxy-3,4-dihydro-isochinolin], the H50-Wert is 1.34.
Still for that read-out and setting: then `CCCCC(C(=O)NC(C)C)C1=NCCc2cc(OC)c(OC)cc21` (stereo not drawn) [D], with 2.25; and `CCCCC(C(=O)NCCc1ccccn1)C1=NCCc2cc(OC)c(OC)cc21` (stereo not drawn) [E], with 2.29; and `CCCCC(C(=O)NC)C1=NCCc2cc(OC)c(OC)cc21` (stereo not drawn) [F], with 1.41.
Turning to `CCCCC(C(=O)NCCOC)C1=NCCc2cc(OC)c(OC)cc21` (stereo not drawn) [G], the H50-Wert is reported as 2.23.
Still for that read-out and setting: the same measure for `COc1cc2c(cc1OC)C1(CCCC1)CNC2=CC1=NCC2(CCCC2)c2cc(OC)c(OC)cc21` [Verbindung A]: 1.25; for `CCCCC(C(=O)NCC(C)O)C1=NCCc2cc(OC)c(OC)cc21` (stereo not drawn) [Verbindung H]: 2.15.
